# Data as given in patent publication US7329657B2, “Indazolyl-substituted pyrroline compounds as kinase inhibitors” (Ortho-McNeil Pharmaceutical, Inc., priority 2000, dated 2008).
# Tests used:
# Format in all cases: biochemical
# [1] = target: T1, recombinant rabbit GSK-3β protein (Oryctolagus cuniculus, UniProt G1T8E2); assay: Glycogen Synthase Kinase-3 Assay; conditions: PPI-2 substrate, 33P-ATP, 90 minutes at 30° C.
# T1 construct: purchased New England Biolabs
# Procedure: Compounds were tested for the ability to inhibit recombinant rabbit GSK-3β protein using the following protocol. The test compound was added to a reaction mixture containing Protein phosphatase inhibitor-2 (PPI-2) (Calbiochem) (45 ng), rabbit GSK-3β protein (New England Biolabs) (0.75 units) and ^33P-ATP (1 μCi) in 50 mM Tris-HCl (pH 8.0), 10 mM MgCl2, 0.1% BSA, 1 mM DTT and 100 μM Sodium Vanadate. The mixture was reacted for 90 minutes at 30° C. to allow phosphorylation of the PPI-2 protein and then the protein in the reaction was precipitated using 10% TCA. The precipitated protein was collected on filter plates (MultiScreen-DV/Millipore), which were subsequently washed. Finally, the radioactivity was quantified using a TopCount Scintillation Counter (Packard).
# PKC α = PKC α (Homo sapiens, UniProt P17252); assay: Protein Kinase C Histone-Based Assay, α isoform; conditions: histone III substrate, 30 μM ATP, 10 min at 30° C.; read-out: PKC Activity (IC50 μM, Histone Based Assay) Alpha
# Procedure: (§1) Compounds were evaluated for PKC selectivity using histone III as the substrate. […] The reaction was incubated for 10 min at 30° C. Reactions were terminated by TCA precipitation and spotting on Whatman P81 filters. Filters were washed in 75 mM phosphoric acid and the radioactivity quantified by liquid scintillation counting.
# PKC β-II = PKC β-II (Homo sapiens, UniProt P05771); assay: Protein Kinase C Histone-Based Assay, β-II isoform; conditions: histone III substrate, 30 μM ATP, 10 min at 30° C.; read-out: PKC Activity (IC50 μM, Histone Based Assay) Beta II
# Sequence of PKC β-II (P05771 1-673 isoform P05771-2): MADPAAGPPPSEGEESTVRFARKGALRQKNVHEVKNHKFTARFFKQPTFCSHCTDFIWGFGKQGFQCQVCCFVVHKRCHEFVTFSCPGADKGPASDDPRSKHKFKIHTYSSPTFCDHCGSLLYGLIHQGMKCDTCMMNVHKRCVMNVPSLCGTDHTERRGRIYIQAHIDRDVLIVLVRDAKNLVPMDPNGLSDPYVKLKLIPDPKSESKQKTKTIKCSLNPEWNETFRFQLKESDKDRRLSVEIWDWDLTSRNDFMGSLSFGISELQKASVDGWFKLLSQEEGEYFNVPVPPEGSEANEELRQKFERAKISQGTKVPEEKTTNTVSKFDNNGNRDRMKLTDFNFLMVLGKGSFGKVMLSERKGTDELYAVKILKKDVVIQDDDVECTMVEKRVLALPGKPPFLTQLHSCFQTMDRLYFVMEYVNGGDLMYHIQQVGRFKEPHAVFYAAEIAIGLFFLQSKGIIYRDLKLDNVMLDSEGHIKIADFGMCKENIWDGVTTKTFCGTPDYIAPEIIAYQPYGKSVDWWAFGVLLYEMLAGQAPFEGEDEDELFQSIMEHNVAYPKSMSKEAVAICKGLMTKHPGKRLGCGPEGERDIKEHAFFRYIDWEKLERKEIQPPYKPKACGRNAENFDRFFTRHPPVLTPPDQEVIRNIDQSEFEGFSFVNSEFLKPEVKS
# Procedure: as §1
# PKC γ = PKC γ (Homo sapiens, UniProt P05129); assay: Protein Kinase C Histone-Based Assay, γ isoform; conditions: histone III substrate, 30 μM ATP, 10 min at 30° C.; read-out: PKC Activity (IC50 μM, Histone Based Assay) Gamma
# Procedure: as §1
# T1 sequence (G1T8E2 1-432): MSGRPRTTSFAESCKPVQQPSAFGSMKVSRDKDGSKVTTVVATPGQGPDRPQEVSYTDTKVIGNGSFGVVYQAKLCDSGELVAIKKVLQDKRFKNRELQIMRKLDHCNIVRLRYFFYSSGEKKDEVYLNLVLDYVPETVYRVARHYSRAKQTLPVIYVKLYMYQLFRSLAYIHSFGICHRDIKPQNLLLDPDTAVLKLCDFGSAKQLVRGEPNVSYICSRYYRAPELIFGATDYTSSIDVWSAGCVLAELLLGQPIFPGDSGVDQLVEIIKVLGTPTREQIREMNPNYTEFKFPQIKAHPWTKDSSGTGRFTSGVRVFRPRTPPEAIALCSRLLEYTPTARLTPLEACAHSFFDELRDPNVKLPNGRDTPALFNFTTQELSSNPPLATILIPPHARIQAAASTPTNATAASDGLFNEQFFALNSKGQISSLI
Compound,IC50 [1] [µM],IC50 (PKC α) [µM],IC50 (PKC β-II) [µM],IC50 (PKC γ) [µM]
"3-(1-ethyl-1H-indol-3-yl)-4-[1-[3-(4-morpholinyl)propyl]-1H-indazol-3-yl]-1H-pyrrole-2,5-dione [Compound 69]",0.018,0.25,0.014,0.55
"C=Cn1cc(C2=C(c3nn(CC(O)CN(C)C)c4ccccc34)C(=O)NC2=O)c2ccccc21 (centres unmarked) [Compound 1, 3-[1-[3-(dimethylamino)-2-hydroxypropyl]-1H-indazol-3-yl]-4-(1-ethenyl-1H-indol-3-yl)-1H-pyrrole-2,5-dione]",0.09,0.052,0.014,0.058
"C=Cn1cc(C2=C(c3nn(CC(O)CN(C)C)c4ccc(Cl)cc34)C(=O)NC2=O)c2ccccc21 (centres unmarked) [Compound 4, 3-[5-chloro-1-[3-(dimethylamino)-2-hydroxypropyl]-1H-indazol-3-yl]-4-(1-ethenyl-1H-indol-3-yl)-1H-pyrrole-2,5-dione]",0.27,,,
"C=Cn1cc(C2=C(c3nn(CCCN(C)C)c4ccccc34)C(=O)NC2=O)c2cc(Cl)ccc21 [Compound 6, 3-(5-chloro-1-ethenyl-1H-indol-3-yl)-4-[1-[3-(dimethylamino)propyl]-1H-indazol-3-yl]-1H-pyrrole-2,5-dione]",0.048,0.105,0.013,0.129
"CCn1cc(C2=C(c3nn(CCCN(C)C)c4ccccc34)C(=O)NC2=O)c2cc(Cl)ccc21 [Compound 46, 3-(5-chloro-1-ethyl-1H-indol-3-yl)-4-[1-[3-(dimethylamino)propyl]-1H-indazol-3-yl]-1H-pyrrole-2,5-dione]",0.01,0.308,0.005,0.123
"Cn1cc(C2=C(c3nn(CCCO)c4ccccc34)C(=O)NC2=O)c2cc(Cl)ccc21 [Compound 74, 3-(5-chloro-1-methyl-1H-indol-3-yl)-4-[1-(3-hydroxypropyl)-1H-indazol-3-yl]-1H-pyrrole-2,5-dione]",0.014,,,
"Cn1cc(C2=C(c3nn(CCCN4CCCC4)c4ccccc34)C(=O)NC2=O)c2cc(Cl)ccc21 [Compound 75, 3-(5-chloro-1-methyl-1H-indol-3-yl)-4-[1-[3-(1-pyrrolidinyl)propyl]-1H-indazol-3-yl]-1H-pyrrole-2,5-dione]",0.033,0.204,0.01,0.175
"CC(=O)OCCCn1nc(C2=C(c3cn(C)c4ccc(Cl)cc34)C(=O)NC2=O)c2ccccc21 [Compound 76, 3-[1-[3-(acetyloxy)propyl]-1H-indazol-3-yl]-4-(5-chloro-1-methyl-1H-indol-3-yl)-1H-pyrrole-2,5-dione]",0.085,,,
"CN1CCN(CCCn2nc(C3=C(c4cn(C)c5ccc(Cl)cc45)C(=O)NC3=O)c3ccccc32)CC1 [Compound 77, 3-(5-chloro-1-methyl-1H-indol-3-yl)-4-[1-[3-(4-methyl-1-piperazinyl)propyl]-1H-indazol-3-yl]-1H-pyrrole-2,5-dione]",0.043,0.354,0.046,0.89
"CCn1nc(C2=C(c3cn(CCCN4CCOCC4)c4ccccc34)C(=O)NC2=O)c2cc(Cl)ccc21 [Compound 86, 3-(5-chloro-1-ethyl-1H-indazol-3-yl)-4-[1-[3-(4-morpholinyl)propyl]-1H-indol-3-yl]-1H-pyrrole-2,5-dione]",0.13,,,
"CCn1cc(C2=C(c3nn(CCCN(C)C)c4ccccc34)C(=O)NC2=O)c2ccc(Cl)cc21 [Compound 90, 3-(6-chloro-1-ethyl-1H-indol-3-yl)-4-[1-[3-(dimethylamino)propyl]-1H-indazol-3-yl]-1H-pyrrole-2,5-dione]",0.096,,,
"CCn1cc(C2=C(c3nn(CCCN(C)C)c4ccccc34)C(=O)NC2=O)c2cccc(Cl)c21 [Compound 95, 3-(7-chloro-1-ethyl-1H-indol-3-yl)-4-[1-[3-(dimethylamino)propyl]-1H-indazol-3-yl]-1H-pyrrole-2,5-dione]",0.06,,,
"CCn1cc(C2=C(c3nn(CCCN(C)C)c4ccccc34)C(=O)NC2=O)c2cc(C#N)ccc21 [Compound 98, 3-[4-[1-[3-(dimethylamino)propyl]-1H-indazol-3-yl]-2,5-dihydro-2,5-dioxo-1H-pyrrol-3-yl]-1-ethyl-1H-indole-5-carbonitrile]",0.015,,,
"O=C1NC(=O)C(c2nn(CCCO)c3ccccc23)=C1c1cn(-c2cncc3ccccc23)c2ccccc12 [Compound 105, 3-[1-(3-hydroxypropyl)-1H-indazol-3-yl]-4-[1-(4-isoquinolinyl)-1H-indol-3-yl]-1H-pyrrole-2,5-dione]",0.073,,,
"O=C1NC(=O)C(c2cn(-c3cccnc3)c3ccccc23)=C1c1[nH]nc2ccccc12 [Compound 118, 3-(1H-indazol-3-yl)-4-[1-(3-pyridinyl)-1H-indol-3-yl]-1H-pyrrole-2,5-dione]",0.2,,,

# The next lines start with the values.
IC50 [1] [µM],IC50 (PKC α) [µM],IC50 (PKC β-II) [µM],IC50 (PKC γ) [µM],Compound
0.049,0.248,0.023,0.323,"C=Cn1cc(C2=C(c3nn(CCCN(C)C)c4ccccc34)C(=O)NC2=O)c2ccccc21 [Compound 3, 3-[1-[3-(dimethylamino)propyl]-1H-indazol-3-yl]-4-(1-ethenyl-1H-indol-3-yl)-1H-pyrrole-2,5-dione]"
0.51,,,,"CN(C)CCCn1nc(C2=C(c3cn(-c4ccncc4)c4ccccc34)C(=O)NC2=O)c2ccccc21 [Compound 32, 3-[1-[3-(dimethylamino)propyl]-1H-indazol-3-yl]-4-[1-(4-pyridinyl)-1H-indol-3-yl]-1H-pyrrole-2,5-dione]"
0.07,,,,"CN(C)CCCn1nc(C2=C(c3cn(-c4cccs4)c4ccc(Cl)cc34)C(=O)NC2=O)c2ccccc21 [Compound 33, 3-[5-chloro-1-(2-thienyl)-1H-indol-3-yl]-4-[1-[3-(dimethylamino)propyl]-1H-indazol-3-yl]-1H-pyrrole-2,5-dione]"
0.034,,,,"CN(C)CCCn1nc(C2=C(c3cn(C)c4ccc(Cl)cc34)C(=O)NC2=O)c2ccccc21 [Compound 43, 3-(5-chloro-1-methyl-1H-indol-3-yl)-4-[1-[3-(dimethylamino)propyl]-1H-indazol-3-yl]-1H-pyrrole-2,5-dione]"
0.09,,,,"CN(C)CCCn1nc(C2=C(c3cn(-c4ccccc4)c4ccc(Cl)cc34)C(=O)NC2=O)c2ccccc21 [Compound 48, 3-(5-chloro-1-phenyl-1H-indol-3-yl)-4-[1-[3-(dimethylamino)propyl]-1H-indazol-3-yl]-1H-pyrrole-2,5-dione]"
0.096,0.217,0.011,0.426,"O=C1NC(=O)C(c2nn(CCCN3CCOCC3)c3ccccc23)=C1c1cn(-c2cccnc2)c2ccccc12 [Compound 68, 3-[1-[3-(4-morpholinyl)propyl]-1H-indazol-3-yl]-4-[1-(3-pyridinyl)-1H-indol-3-yl]-1H-pyrrole-2,5-dione]"
0.21,,,,"O=C1NC(=O)C(c2nn(CCCO)c3ccccc23)=C1c1cn(-c2ccccn2)c2ccccc12 [Compound 102, 3-[1-(3-hydroxypropyl)-1H-indazol-3-yl]-4-[1-(2-pyridinyl)-1H-indol-3-yl]-1H-pyrrole-2,5-dione]"
0.033,,,,"O=C1NC(=O)C(c2nn(CCOCCO)c3ccccc23)=C1c1cn(-c2cccnc2)c2ccccc12 [Compound 106, 3-[1-[2-(2-hydroxyethoxy)ethyl]-1H-indazol-3-yl]-4-[1-(3-pyridinyl)-1H-indol-3-yl]-1H-pyrrole-2,5-dione]"
0.075,,,,"O=C1NC(=O)C(c2nn(CCO)c3ccccc23)=C1c1cn(-c2cccnc2)c2ccccc12 [Compound 110, 3-[1-(2-hydroxyethyl)-1H-indazol-3-yl]-4-[1-(3-pyridinyl)-1H-indol-3-yl]-1H-pyrrole-2,5-dione]"
0.04,,,,"O=C1NC(=O)C(c2nn(CCCCO)c3ccccc23)=C1c1cn(-c2cccnc2)c2ccccc12 [Compound 111, 3-[1-(4-hydroxybutyl)-1H-indazol-3-yl]-4-[1-(3-pyridinyl)-1H-indol-3-yl]-1H-pyrrole-2,5-dione]"
0.115,,,,"O=CCCn1nc(C2=C(c3cn(-c4cccnc4)c4ccccc34)C(=O)NC2=O)c2ccccc21 [Compound 112, 1H-indazole-1-propanal, 3-[2,5-dihydro-2,5-dioxo-4-[1-(3-pyridinyl)-1H-indol-3-yl]-1H-pyrrol-3-yl]-1H-pyrrole-2,5-dione]"
0.055,,,,"CC(C)(C)OC(=O)NCCCn1nc(C2=C(c3cn(-c4cccnc4)c4ccccc34)C(=O)NC2=O)c2ccccc21 [Compound 115, [3-[3-[2,5-dihydro-2,5-dioxo-4-[1-(3-pyridinyl)-1H-indol-3-yl]-1H-pyrrol-3-yl]-1H-indazol-1-yl]propyl]-carbamic acid 1,1-dimethylethyl ester]"
0.07,,0.034,,"COCCCn1nc(C2=C(c3cn(-c4cccnc4)c4ccccc34)C(=O)NC2=O)c2ccccc21 [Compound 117, 3-[1-(3-methoxypropyl)-1H-indazol-3-yl]-4-[1-(3-pyridinyl)-1H-indol-3-yl]-1H-pyrrole-2,5-dione]"
